According to ChEMBL document CHEMBL5241120, “Insights into the medicinal chemistry of heterocycles integrated with a pyrazolo[1,5-a]pyrimidine scaffold” (RSC Med Chem, 2022):
Converted amounts (≈) assume the structure as drawn.

How the values were obtained:
[1] = test system: HCT-116; experiment: Cytotoxicity against human HCT-116 cells; type: functional
[2] = test system: Candida albicans; experiment: Antifungal activity against Candida albicans; type: functional
[3] = Inhibition of Hepatitis C virus NS3 protease; type: functional, Hepacivirus hominis
[4] = test system: SiHa; experiment: Cytotoxicity against human SiHa cells by MTT assay; type: functional, cell-based
[5] = test system: A549; experiment: Cytotoxicity against human A549 cells by MTT assay; type: functional, cell-based
[6] = molecular target: T1, Prostaglandin G/H synthase 1 (Ovis aries, UniProt P05979); experiment: Inhibition of ovine COX-1
T1 sequence (P05979 whole entry): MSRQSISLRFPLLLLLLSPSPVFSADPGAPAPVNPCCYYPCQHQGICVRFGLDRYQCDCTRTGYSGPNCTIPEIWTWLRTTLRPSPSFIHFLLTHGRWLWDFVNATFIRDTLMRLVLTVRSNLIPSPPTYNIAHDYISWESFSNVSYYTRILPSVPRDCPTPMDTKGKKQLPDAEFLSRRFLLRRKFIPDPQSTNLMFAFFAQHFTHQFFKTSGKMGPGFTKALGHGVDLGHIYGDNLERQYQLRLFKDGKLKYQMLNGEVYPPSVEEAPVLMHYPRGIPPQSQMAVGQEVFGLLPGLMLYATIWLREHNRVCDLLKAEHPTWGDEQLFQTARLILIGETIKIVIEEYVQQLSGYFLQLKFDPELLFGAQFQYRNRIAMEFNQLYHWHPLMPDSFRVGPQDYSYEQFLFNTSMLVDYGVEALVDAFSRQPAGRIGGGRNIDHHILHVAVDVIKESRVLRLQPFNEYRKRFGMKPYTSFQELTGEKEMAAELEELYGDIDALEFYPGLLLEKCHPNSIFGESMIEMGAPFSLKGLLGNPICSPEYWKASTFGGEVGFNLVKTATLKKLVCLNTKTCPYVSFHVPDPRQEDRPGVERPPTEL

[7] = Inhibition of soybean 15-LOX; parameters: species or system Glycine max
[8] = test system: Rattus norvegicus; experiment: Antiinflammatory activity in rat assessed as inhibition of carrageenan induced paw edema; type: functional
[9] = test system: Rattus norvegicus; experiment: Antiinflammatory activity in rat assessed as inhibition of carrageenan induced paw edema at 50 mg/kg; type: functional; parameters: scale not given: the % may be the effect or the level left
[10] = test system: RAW264.7; experiment: Antiinflammatory activity in mouse RAW264.7 cells assessed as decrease in IL-6 secretion; type: functional; parameters: scale not given: the % may be the effect or the level left
[11] = test system: RAW264.7; experiment: Antiinflammatory activity in mouse RAW264.7 cells assessed as decrease in TNFalpha secretion; type: functional; parameters: scale not given: the % may be the effect or the level left
[12] = test system: Staphylococcus aureus; experiment: Antibacterial activity against Staphylococcus aureus assessed as zone of inhibition; type: functional
[13] = test system: Aspergillus niger; experiment: Antifungal activity against Aspergillus niger assessed as zone of inhibition; type: functional
[14] = test system: Salmonella typhimurium; experiment: Antibacterial activity against Salmonella typhimurium assessed as zone of inhibition; type: functional, Salmonella enterica subsp. enterica serovar Typhimurium
[15] = test system: Mus musculus; experiment: Antiinflammatory activity in mouse assessed as inhibition of paw edema after 24 hrs; type: functional; parameters: scale not given: the % may be the effect or the level left
[16] = test system: CHO-K1; experiment: Cytotoxicity against CHO-K1 cells by MTT assay; type: toxicity, cell-based, Cricetulus griseus; parameters: concentration or dose not given beside the values; details: chinese hamster
[17] = test system: Escherichia coli; experiment: Antibacterial activity against Escherichia coli assessed as zone of inhibition at 5 mg/ml; type: functional; details: read-out: IZ
[18] = test system: Staphylococcus aureus; experiment: Antibacterial activity against Staphylococcus aureus assessed as zone of inhibition at 5 mg/ml; type: functional; details: read-out: IZ
[19] = molecular target: T2, liver carboxylesterase (CES) (Sus scrofa, UniProt Q29550); experiment: Inhibition of pig liver CES at 20 uM relative to control; type: tissue-based
T2 sequence (Q29550 whole entry): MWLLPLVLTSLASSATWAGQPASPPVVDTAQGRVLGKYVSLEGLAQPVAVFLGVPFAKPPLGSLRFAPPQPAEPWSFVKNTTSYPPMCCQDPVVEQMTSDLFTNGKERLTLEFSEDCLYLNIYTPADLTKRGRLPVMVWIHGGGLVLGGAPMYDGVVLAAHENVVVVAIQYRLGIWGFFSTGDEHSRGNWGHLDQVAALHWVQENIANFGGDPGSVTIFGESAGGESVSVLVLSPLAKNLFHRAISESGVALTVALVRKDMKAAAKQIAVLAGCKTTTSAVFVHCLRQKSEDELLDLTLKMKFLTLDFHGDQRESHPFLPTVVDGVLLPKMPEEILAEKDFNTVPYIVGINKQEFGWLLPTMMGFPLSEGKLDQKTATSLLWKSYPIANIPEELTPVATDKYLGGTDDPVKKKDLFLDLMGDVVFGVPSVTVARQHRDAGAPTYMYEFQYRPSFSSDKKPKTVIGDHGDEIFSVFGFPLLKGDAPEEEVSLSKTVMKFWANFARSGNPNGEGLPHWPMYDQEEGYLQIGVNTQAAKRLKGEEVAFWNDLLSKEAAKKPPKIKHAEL

[20] = Antioxidant activity assessed as ABTS radical scavenging activity; type: functional
[21] = test system: Rattus norvegicus; experiment: Analgesic activity in Sprague-Dawley rat at 15 mg/kg after 2 hrs by hot plate test; type: functional
[22] = test system: Mus musculus; experiment: Anxiolytic activity in mouse assessed as time spent in light at 1 mg/kg, po; type: functional
[23] = test system: Mus musculus; experiment: Anxiolytic activity in mouse assessed as transfer number at 1 mg/kg, po; type: functional
[24] = test system: HEK293; experiment: Cytotoxicity against HEK293 cells; type: functional, Homo sapiens
[25] = test system: Rattus norvegicus; experiment: Analgesic activity in Sprague-Dawley rat at 15 mg/kg after 1 hr by hot plate test; type: functional
[26] = molecular target: T3, Androgen receptor (Homo sapiens, UniProt P10275); experiment: Antagonist activity at androgen receptor (unknown origin)
T3 sequence (P10275 whole entry): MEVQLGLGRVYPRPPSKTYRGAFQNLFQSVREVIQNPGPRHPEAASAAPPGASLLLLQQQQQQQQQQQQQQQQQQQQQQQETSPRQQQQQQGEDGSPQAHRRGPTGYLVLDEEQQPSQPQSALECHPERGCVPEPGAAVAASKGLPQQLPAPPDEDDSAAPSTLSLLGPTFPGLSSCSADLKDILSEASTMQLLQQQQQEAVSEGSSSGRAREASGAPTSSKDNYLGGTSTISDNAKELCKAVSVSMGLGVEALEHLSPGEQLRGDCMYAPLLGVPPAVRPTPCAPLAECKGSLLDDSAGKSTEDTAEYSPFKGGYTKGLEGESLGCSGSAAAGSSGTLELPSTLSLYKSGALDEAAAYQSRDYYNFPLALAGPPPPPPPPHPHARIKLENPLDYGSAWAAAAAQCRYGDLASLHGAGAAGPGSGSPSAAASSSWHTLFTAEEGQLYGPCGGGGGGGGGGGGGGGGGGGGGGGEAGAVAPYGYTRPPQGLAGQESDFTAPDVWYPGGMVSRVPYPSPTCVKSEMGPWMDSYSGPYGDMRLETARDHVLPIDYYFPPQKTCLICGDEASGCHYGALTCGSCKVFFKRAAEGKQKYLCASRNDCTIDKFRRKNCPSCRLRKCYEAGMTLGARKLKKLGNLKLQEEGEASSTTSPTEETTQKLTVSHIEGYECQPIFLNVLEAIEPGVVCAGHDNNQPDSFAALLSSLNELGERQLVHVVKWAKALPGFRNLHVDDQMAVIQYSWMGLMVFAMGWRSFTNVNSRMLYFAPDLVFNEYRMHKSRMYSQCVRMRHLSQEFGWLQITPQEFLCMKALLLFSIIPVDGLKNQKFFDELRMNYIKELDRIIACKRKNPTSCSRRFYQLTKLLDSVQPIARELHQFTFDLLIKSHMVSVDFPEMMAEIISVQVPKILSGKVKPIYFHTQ

COc1ccc(-c2ccnc3cc(-c4ccc(Cl)cc4)nn23)cc1 showed an Activity [1] of 37%.

COc1ccc(Nc2nn3c(N)c(C#N)c(-c4ccc(F)cc4)nc3c2C(N)=O)cc1 gave an MIC [2] of 15.6 µg/mL (≈ 37.4 µM).

CC(C)OC(=O)[C@H](C)N[P@](=O)(OC[C@H]1O[C@@H](n2ccc(=O)[nH]c2=O)[C@](C)(F)[C@@H]1O)Oc1ccccc1 [SOFOSBUVIR] showed an IC50 [3] of 3.2 µg/mL (≈ 6.04 µM).

Work on COc1ccc(-c2cc(-c3nn4cc(-c5ccncc5)cnc4c3S(=O)(=O)c3cc([N+](=O)[O-])c(OC)c([N+](=O)[O-])c3)on2)cc1 yielded an IC50 [4] of 0.08 µM and an IC50 [5] of 0.054 µM.

Molecule COc1ccnc(Nc2nn3c(SC)c(C#N)c(O)nc3c2C#N)c1 has an IC50 [6] of 12.6 µM, an IC50 [7] of 18.4 µM and an ED50 [8] of 35 mg/kg. It also gave an Activity [9] of 46%, an Activity [10] of 80% and an Activity [11] of 89%.

COc1ccc(-c2cc3nccc(-c4ccccc4)n3n2)cc1 gave an Activity [1] of 26%.

NC(=O)c1c(Nc2ccccc2)nn2c(-c3ccccc3)cc(-c3ccccc3)nc12 showed an MIC [2] of 15.6 µg/mL (≈ 38.5 µM).

For Nc1nn2c(-c3ccc(S(=O)(=O)c4ccccc4)cc3)ccnc2c1/N=N/c1cccc(Cl)c1, the “inhibition zone (IZ)” value [12] was 23.4 mm, the “inhibition zone (IZ)” value [13] was 25.1 mm and the “inhibition zone (IZ)” value [14] was 26.3 mm.

In the case of CC(=O)c1cnc2c(C(=O)Nc3c(C)n(C)n(-c4ccccc4)c3=O)cnn2c1C, the Activity [15] is reported as 16.57% and the Activity [16] is reported as 72.46%.

Work on Nc1nc2c(/N=N/c3ccc(F)cc3)c(N)nn2c(N)c1/N=N/c1ccc(F)cc1 yielded a zone of inhibition at 5000 µg/mL [17] of 10 mm.

With Nc1nc2c(/N=N/c3ccc(C(F)(F)F)cc3)c(N)nn2c(N)c1/N=N/c1ccc(F)cc1 the zone of inhibition at 5000 µg/mL [18] was 10 mm.

Molecule Cc1ccc(N/N=C2\C(=O)n3nc(-c4ccccc4)cc3N=C2C(F)(F)F)cc1 has an inhibition at 20 µM [19] of 2.91%, an Activity [20] of 0.19 µM and an Activity [21] of 47.4%.

Work on CN1C(=O)CN=C(c2ccccc2)c2cc(Cl)ccc21 [DIAZEPAM] yielded an Activity [22] of 171.6% and an Activity [23] of 171.6.

For Clc1ccc(-c2cc3nccc(-c4ccc(Cl)cc4)n3n2)cc1, the Activity [24] was 44.2%.

CC1=Nc2cc(-c3ccccc3)nn2C(=O)/C1=N\Nc1ccc(C)cc1 showed an inhibition at 20 µM [19] of 22.8%, an Activity [20] of 0.21 µM and an Activity [25] of 43.9%. The Activity [21] was 65.9%.

COc1ccc(C2CC(C(F)(F)F)n3nc(-c4ccc(C(=O)O)cc4)cc3N2)cc1OC (stereo unspecified) showed an IC50 [26] of 23.4 µM.
